Results on six compounds are retold here after US20240051958A1, “DIACYLGLYCEROL KINASE (DGK) ALPHA INHIBITORS AND USES THEREOF” (priority 2022, published 2024).

The subject of data set [1] is Human Pan T cells. The data set is described as follows: IL-2 Release Detection Assay. Format: cell-based. The conditions noted are these: for Activation fold: Top activation/DMSO control; for Activation % at 100 nM: fitted curve at 100 nM/DMSO control*100%. The procedure: Add dilutions of compounds into the cells and incubate at 37° C. &5% CO2 for 24 hours. IL-2 in cell supernatant was detected by ELISA Kit (R&D, DY202). […] Top and Bottom: Plateaus in same units as Y. LogEC50: same log units as X. Activation fold: Top activation/DMSO control. Activation % at 100 nM: Activation of non-linear regression equation curve at the concentration of 100 nM/DMSO control*100%.

Data set [2] addresses DGKA (Homo sapiens (Human), UniProt P23743). The data set is described as follows: DGKA Inhibition ADP-Glo Assay. Format: biochemical. The conditions noted are these: 40 μM ATP, 200 μM DLG in substrate working solution, 25° C., 60 min. On the procedure: The DGKA inhibition reactions were performed using ADP-Glo assay. The reactions were carried out in 50 mM HEPES, 100 mM NaCl, 10 mM MgCl2, 1 mM CaCl2, 0.005% TritonX-100 and 1 mM DTT as working solution (pH=7.5). 30 nL DMSO solution of each test compound (Top concentration 0.4 μM with 10 point, 4-fold dilution series for each compound) were transferred to 384 well plate by Echo and 5 μL DGKA (SignalChem, D21-10BG) enzyme working solution at 2×final reaction concentration was added to each well. After incubated at 25° C. for 15 minutes, 5 μL substrate working solution contain 40 μM ATP (Promega, V915B) and 200 μM DLG (SignalChem, D430-59) were added to initiate reaction. After enzymatic reaction at 25° C. for 60 min, ADP Glo assay reagents (Promega, V9102) were added and luminescence was recorded using an EnVision following the instruction of manual. […] The IC50 value was calculated via a regression analysis of the inhibition rate.

Data set [3] in a line: Pharmacokinetic Profile Evaluation (mouse PK). Format: in vivo, CD-1 mice. The conditions noted are these: CD-1, plasma, oral administration at 5 mg/kg. The procedure: Species and strain: CD-1 mice of SPF. Source: Sino-British SIPPR/BK Lab Animal Ltd, Shanghai. 3 mice were intravenously administrated with given compounds (Formulation: 5% DMSO+10% Solutol+85% Saline) or orally gavage administrated with given compounds (Formulation: 5% DMSO+10% Solutol+85% Saline). The blood samples were taken via cephalic vein at timepoints 0.083 h, 0.25 h, 0.5 h, 1 h, 2 h, 4 h, 8 h and 24 h after intravenous administration or at timepoints 0.25 h, 0.5 h, 1 h, 2 h, 4 h, 6 h, 8 h and 24 h after oral gavage administration, 30 μL/time point. Blood samples were placed in tubes containing K2-EDTA and stored on ice until centrifuged. The blood samples were centrifuged at 6800 g for 6 minutes at 2-8° C. within 1 h after collected and stored frozen at approximately −80° C. An aliquot of 10 μL plasma samples were protein precipitated with 200 μL MeOH in which contains 10 ng/mL Verapamil (IS). The mixture was vortexed for 1 min and centrifuged at 18000 g for 7 min. Transfer 180 μL supernatant to 96 well plates. An aliquot of 6 μL supernatant was injected for LC-MS/MS analysis by LC-MS/MS-04 (API4000) instrument. The analytical results were confirmed using quality control samples for intra-assay variation. The accuracy of >66.7% of the quality control samples should be between 80-120% of the known value(s). Standard set of parameters including Area Under the Curve (AUC(0-t) and AUC(0-∞)), elimination half-live (T1/2), maximum plasma concentration (Cmax), will be calculated using noncompartmental analysis modules in FDA certified pharmacokinetic program Phoenix WinNonlin 7.0 (Pharsight, USA).

Sequence of DGKA (P23743 whole entry): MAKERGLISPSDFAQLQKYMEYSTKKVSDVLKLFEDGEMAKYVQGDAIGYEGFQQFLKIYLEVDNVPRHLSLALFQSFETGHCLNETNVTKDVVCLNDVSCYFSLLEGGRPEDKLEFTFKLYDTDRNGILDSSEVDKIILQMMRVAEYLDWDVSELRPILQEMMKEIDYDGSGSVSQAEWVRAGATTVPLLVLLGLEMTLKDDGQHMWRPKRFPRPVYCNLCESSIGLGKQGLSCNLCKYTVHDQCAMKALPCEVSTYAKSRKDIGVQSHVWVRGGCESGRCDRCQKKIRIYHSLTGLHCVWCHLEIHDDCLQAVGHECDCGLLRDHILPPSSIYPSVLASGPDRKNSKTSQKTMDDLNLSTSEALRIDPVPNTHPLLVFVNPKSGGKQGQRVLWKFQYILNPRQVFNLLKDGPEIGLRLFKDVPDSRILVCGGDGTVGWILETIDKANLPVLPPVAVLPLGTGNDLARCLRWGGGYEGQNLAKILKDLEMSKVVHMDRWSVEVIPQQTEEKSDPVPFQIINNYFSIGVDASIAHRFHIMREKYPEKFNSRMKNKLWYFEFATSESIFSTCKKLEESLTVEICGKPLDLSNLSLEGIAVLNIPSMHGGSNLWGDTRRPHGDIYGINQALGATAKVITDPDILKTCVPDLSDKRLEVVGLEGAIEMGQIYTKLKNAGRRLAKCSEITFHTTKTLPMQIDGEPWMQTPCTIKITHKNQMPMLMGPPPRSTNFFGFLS

The term IC50 denotes the concentration that inhibits the measured activity by half. A word on the AUC(0-inf): it is total exposure, with the tail of the curve extrapolated. The term AUC(0-t) denotes exposure summed from dosing to a finite time, without extrapolation to infinity. A word on the Cmax: it is the maximum level reached in the sampled fluid or tissue. A word on the half-life: it is the time in which the quantity being followed falls by half. On to `Cn1c(=O)cc(N2CCC(c3nc4cc(F)ccc4o3)CC2)c2nc(C#N)ccc21` [Example 12, 8-(4-(5-fluorobenzo[d]oxazol-2-yl)piperidin-1-yl)-5-methyl-6-oxo-5,6-dihydro-1,5-naphthyridine-2-carbonitrile], for which, in data set [1], the Activation fold amounted to 8.5 and the “Activation % at 100 nM” value was determined as 340%. The compound also came in with an IC50 in data set [2] of 1.35 nM. In data set [3], this compound gave an AUC(0-inf) of 5940 ng·h/mL, an AUC(0-t) of 5460 ng·h/mL, a Cmax of 1100 ng/mL and a half-life of 3.56 h.
Take `Cc1ccc2oc(C3CCN(c4cc(=O)n(C)c5ccc(C#N)nc45)CC3)nc2c1` [Example 1, 5-methyl-8-(4-(5-methylbenzo[d]oxazol-2-yl)piperidin-1-yl)-6-oxo-5,6-dihydro-1,5-naphthyridine-2-carbonitrile]: in data set [1], the Activation fold stood at 17.7 and the “Activation % at 100 nM” value came out at 416%. Moreover, the IC50 in data set [2] was found to be 1.99 nM. In data set [3], this compound had an area under the curve AUC(0-inf) of 6150 ng·h/mL, an AUC(0-t) of 5980 ng·h/mL, a Cmax of 1880 ng/mL and a half-life of 1.46 h.
Turning to `Cc1ccc2oc(C3CCN(c4cc(=O)n(C)c5cc(O[C@@H]6CCOC6)c(C#N)nc45)CC3)nc2c1` [Example 28, (R)-5-methyl-8-(4-(5-methylbenzo[d]oxazol-2-yl)piperidin-1-yl)-6-oxo-3-((tetrahydrofuran-3-yl)oxy)-5,6-dihydro-1,5-naphthyridine-2-carbonitrile], the IC50 in data set [2] turned out to be 0.14 nM. In data set [3], this compound had an AUC(0-inf) of 3460 ng·h/mL, an AUC(0-t) of 3410 ng·h/mL, a Cmax of 677 ng/mL and a half-life of 2.67 h.
For `Cc1ccc2oc(C3CCN(c4cc(=O)n(C)c5cc(OCCO)c(C#N)nc45)CC3)nc2c1` [Example 23, 3-(2-hydroxyethoxy)-5-methyl-8-(4-(5-methylbenzo[d]oxazol-2-yl)piperidin-1-yl)-6-oxo-5,6-dihydro-1,5-naphthyridine-2-carbonitrile], in data set [1], the Activation fold was 24.5 and the “Activation % at 100 nM” value was determined as 931%. Further, inhibition in data set [2] was half-maximal at 0.27 nM (IC50). In data set [3], this compound had an AUC(0-inf) of 12100 ng·h/mL, an AUC(0-t) of 12000 ng·h/mL, a Cmax of 1820 ng/mL and a half-life of 3.51 h.
As to `Cc1ccc2oc(C3CCN(c4cc(=O)n(C)c5cc(O[C@H]6CCOC6)c(C#N)nc45)CC3)nc2c1` [Example 29, (S)-5-methyl-8-(4-(5-methylbenzo[d]oxazol-2-yl)piperidin-1-yl)-6-oxo-3-((tetrahydrofuran-3-yl)oxy)-5,6-dihydro-1,5-naphthyridine-2-carbonitrile], in data set [1], the Activation fold came out at 8.5 and the “Activation % at 100 nM” value stood at 292%. Besides, half-maximal inhibition in data set [2] (IC50) required 0.7 nM.
Regarding `Cc1ccc2oc(C3CCN(c4cc(=O)n(C)c5ccc(Cl)nc45)CC3)nc2c1` [Example 10, 6-chloro-1-methyl-4-(4-(5-methylbenzo[d]oxazol-2-yl)piperidin-1-yl)-1,5-naphthyridin-2(1H)-one], in data set [1], the Activation fold came out at 7.3 and the “Activation % at 100 nM” value turned out to be 143%. In data set [2], this compound had a half-maximal inhibitory concentration (IC50) of 0.36 nM.
